The subject of experiment [1] is ferret trachea. The following applies: for order of potency for stimulation of secretion: each tachykinin 10⁻⁵M; for potentiation of substance P-induced secretion: substance P 10⁻⁶M. The procedure:
(§1) Mucus secretion from tracheal segments of 36 ferrets was measured using methods described earlier (Borson, D.B. et al., J. Appl. Physiol. 57: 457-466 [1984]). Briefly, after anesthetizing adult male ferrets weighing 1-2 kg with sodium pentobarbital (45-60 mg/kg, ip), the trachea was removed and washed in medium 199/Earles HCO₃ bubbled with 95% O₂ - 5% CO₂ at 38°C. Tracheal segments were mounted in plastic Ussing-type chambers connected to perfusion chambers made of siliconized glass (MRA Inc., Clearwater, Florida). After exposing both sides to medium 199, 0.167 mCi Na₂.³⁵SO₄ was added to the submucosal side. At 15 minute intervals, the medium was drained from the luminal side and replaced with fresh unlabeled medium. Each sample was placed in dialysis tubing (Spectropore no. D1615-1; MW cutoff: 12-14,000) and exhaustively dialyzed with the rest of the samples from the experiment against at least 6 changes of distilled water (4 liters each) containing excess unlabeled SO₄ and sodium azide (10 mg/L) to prevent bacterial degradation of the macromolecules. After dialysis, the bound radioactivity of each sample was determined using a Beckman Instruments beta counter (model LS 7500). Molecular weight profiles of the materials secreted were determined by first desalting samples using a Sephadex G-50 column, then concentrating carbohydrate-containing molecules on DEAE Sephacel, and determining apparent molecular size under denaturing conditions (4 M guanidine, 10mM 2-mercaptoethanol, 0.1% Triton X-100) using a Sepharose CL-6B column.
(§2) Characteristics of the response to substance P including the time course, concentration dependence, and reproducibility were studied. Tracheal segments from 8 ferrets were incubated in the presence of radiolabel for 3 hours to which were added different concentrations of substance P (10⁻⁹M to 10⁻⁵M; Peninisula Labs, Belmont, CA). […] All treatments were randomized with regard to the site of sampling in the trachea to eliminate systematic bias.
(§3) The effects of endogenous proteinases were studied by incubating at least two tissues from each of 4 ferrets for 30 minutes in medium for 2.5 hours and adding a combination of nine (9) proteinase inhibitors to the submucosal side of each tissue (10 µg/mL each). The inhibitors used included leupeptin, antipain, pepstatin A, thiorphan, substance P₁₋₉ (Growcott, J.W. and Tarpey, A.V. Eur. J. Pharm. 84: 107-109 [1982]) and the angiotensin converting enzyme inhibitor, teprotide (Peninsula labs), aprotonin, BSA, and bacitracin (Sigma). Thirty minutes after addition of inhibitor, substance P (10⁻⁶M) was added to the submucosal side. […] The mean responses to substance P in the presence of inhibitors was compared with the mean responses of two control segments from each of the same animals.
(§4) The concentration-dependence of enkephalinase inhibition was explored by adding thiorphan in different concentrations to different tissues. To determine whether the secretory effect of substance P might be mediated indirectly via the release of endogenous enkephalins, we tested the effects of met-enkephalin (Peninsula Labs) on secretory responses.
(§5) We calculated the flux of bound SO₄ (^JSO₄) from the cpm in the dialyzed samples according to the equation modified from (Corrales, R.J. et al., J. Appl. Physiol. 56: 1076-1082 [1985]): ()^J SO4 (pmol SO4 (/cm)^2 /h) =(((cpm recovered/15 min x 4) x (811 x 10)^6 pmol cold SO4 /5mL))/((0.5 cm)^2 x cpm in 5.0 mL of hot-side medium) [formula]

Experiment [2] has as its system ferret trachea. Description: Mucus secretion from ferret tracheal segments in Ussing-type chambers (release of 35SO4-labeled macromolecules, flux of bound SO4). Format: cell-based. To be noted: for potentiation of substance P-induced secretion: 10 µg/ml each, bestatin 10⁻⁵M (Fig. 4). How it is done: as §1, §2, §3, §4, §5
Experiment [3] has as its system ferret tracheal smooth muscle. Description: Electrical field stimulation-induced contraction of isolated tracheal smooth muscle. Format: cell-based. The following applies: inhibitor 10⁻⁵ M, 15 min; tachykinins 10⁻⁷ M. How it is done: (§6) The tracheal rings were connected to strain gauges (Grass FT03) for continuous recording of isometric tension, and the rings were placed between two rectangular platinum electrodes (6 x 40 mm) for electrical field stimulation. The rings were initially stretched to a tension of 20 g for 30 seconds and were then allowed to equilibrate for 1 hour while resting tension was adjusted to 4 g (Skoogh, B-E. et al., J. Appl. Physiol. 53: 253-257 [1982]). During equilibration, the medium was changed every 15 minutes. […] Id.
Increasing concentrations of leu-thiorphan (10⁻¹¹ to 10⁻⁴ M) were added and the stimuli repeated to determine whether leu-thiorphan modulated electrical field stimulation-induced contractions. […] After determining control responses to electrical field stimulation (5 Hz), leu-thiorphan (10⁻⁵ M; 15 min) was added, the stimulus repeated, (DPro²,DTrp^7,9)substance P, the substance P antagonist (10⁻⁵ M; 15 min; Peninisula Labs) was added, and the stimulus was repeated.
(§7) Data were expressed as mean ± SE. For the dose-response curves to tachykinins the means between two groups at each concentration were analyzed by an unpaired t test. For the study of electrical field stimulation, responses were compared by one way analysis of variance and Newman-Keuls multiple range test. Significance was accepted at p<0.05.

Experiment [4] relates to ferret tracheal smooth muscle. Description: Isometric tension of isolated tracheal smooth muscle rings (contraction by peptides, effect of inhibitors). In kind it is cell-based. How it is done: (§8) Twenty-seven ferrets were anesthetized with pentobarbital sodium (45-60 mg/kg, i.p.), and the trachea were removed. Transverse rings (8 mm long) were cut from the trachea and mounted in glass chambers filled with 14 ml of Krebs-Henseleit solution of the following composition (in mMoles/L): NaCl 118, KCl 5.9, CaCl₂ 2.5, MgSO₄ 1.2, NaH₂PO4 1.2, NaHCO₃ 25.5, glucose 5.6, 0.1% bovine serum albumin, and penicillin-streptomycin (100 Units/ml). The soluiton was maintained at 37°C and was aerated continuously in a mixture of 95% O₂-5% CO₂, which produced a pH of 7.4. Six tracheal rings were studied concurrently.
as §6
The responsiveness to substance P (using concentrations ranging from 10⁻⁸ M to 10⁻⁵ M) and to leu-thiorphan and cumulative dose-response curves to substance P (Peninsula Labs) were obtained. Each succeeding concentration of substance P was added after contraction reached a plateau. After completion of the first dose-response curve to substance P, leu-thiorphan (10⁻⁵ M, Squibb Pharmaceutical) was added to the organ bath. Following a 15 minute incubation, a second dose-response curve to substance P was obtained.
The N-terminal fragment, substance P₁₋₉ was studied because enkephalinase cleaves substance P between the 9 and 10 positions (Matsas, R. et al., Proc. Natl. Acad. Sci. [USA] 80: 3111-3115 [1983]), generating that fragment. (10⁻⁵ M Peninsula Labs). Experiments were also carried out with (DPro², DTrp^7,9)-substance P (10⁻⁵ M) (Peninsula Labs), a substance P antagonist (Hakanson, R. et al., Br. J. Pharmac. 77: 697-700 [1982]) by adding the antagonist after the response to substance P (10⁻⁶ M) and leu-thiorphan (10⁻⁵ M) reached a plateau.
Data were expressed as mean ± SE. For the dose-response curves to substance P, the means between two groups at each concentration were compared by a paired t test. For the studies of electrical field stimulation, responses were compared by one way analysis of variance and Newman-Keuls multiple range test. Significance was accepted at P < 0.05. […]

A further experiment relates to neutrophils. Description: Neutrophil chemotaxis assay (Chemotaxis kit, 5 µm filter). In kind it is cell-based. The following applies: Homo sapiens, Formyl Met-Leu-Phe 1µM + inhibitor 10µM, 1 hr at 37°C, read-out: Neutrophil Migration (% control). The procedure: As assay was used to test the effects of enkephalinase on neutrophil chemotaxis. A commercially available chemotactic assay (Chemotaxis kit, Neuroprobe, Cabin John, Md) was used and modified as described below. Neutrophils were isolated by sedimentation over dextran from peripheral blood of human donors. A sample of neutrophils is placed over a 5 µm filter in a chemotaxis chamber containing aliquots of test material. Three to six replicates were run for each test for 1 hr. at 37°C. The number of migrating neutrophils in each chamber is then counted. The chemotactic potential is evaluated by the number of cells in five selected unit areas.
Various specific inhibitors of enkephalinase were used to determine the role of enkephalinase in chemotaxis of neutrophils. Chemotactic activity is reported as the total number of neutrophils observed in five fields of the kit membrane under 100X magnification. Thus, the larger the number the more chemotactic was a particular test composition.

For experiment [5], the system named is ferret tracheal smooth muscle. Description: Isometric tension of isolated tracheal smooth muscle rings (contraction by peptides, effect of inhibitors). In kind it is cell-based. How it is done: as §8
The tracheal rings were connected to strain gauges (Grass FT03) for continuous recording of isometric tension, and the rings were placed between two rectangular platinum electrodes (6 x 40 mm) for electrical field stimulation. The rings were initially stretched to a tension of 20 g for 30 seconds and were then allowed to equilibrate for 1 hour while resting tension was adjusted to 4 g (Skoogh, B-E. et al., J. Appl. Physiol. 53: 253-257 [1982]). During equilibration, the medium was changed every 15 minutes. […] Id. […]
The methods used to excise tracheal tissue, mount and electrically stimulate the tissue were identical to those described above. The responses to tachykinins and to leu-thiorphan, cumulative dose-response curves to substance P (Peninsula Labs), neurokinin A (Peninisula Labs) and neurokinin B (Peninsula Labs) were obtained using concentrations ranging from 10⁻¹¹ M to 10⁻⁵ M in the presence and absence of leu-thiorphan (10⁻⁵ M, 15 min; Squibb Pharmaceutical). Each succeeding concentration of tachykinin was added after the previous contraction had reached a plateau.
as §7
The methods used were the same as those described in Example 7.
The source holds these as a separate data set.

Where [6] appears, read: presence of phosphoramidon 10⁻⁵M.
Setting [7] is: inhibitor 10⁻⁴M, substance P 10⁻⁶M.

Read-outs that look alike come from different tables or passages of the source.

On to physalaemin, for which the “order of potency for stimulation of secretion” value (shortened to “order of potency”) in the experiment with ferret trachea [1] (absence of phosphoramidon) is “substance P> physalaemin=eledoisin=kassinin > neurokinin A”; in the experiment with ferret trachea [1] (setting [6]), “Substance P=neurokinin A=physalaemin=eledoisin=kassinin>neurokinin B”.

On to `CC(C)C[C@H](NC(=O)[C@@H](O)[C@H](N)Cc1ccccc1)C(=O)O` [bestatin], for which the “potentiation of substance P-induced secretion” value in the experiment on ferret trachea [2] (substance P 10⁻⁶M) is listed as “failed to potentiate substance P-induced secretion”. In addition, the “potentiation of the response to electrical field stimulation in the presence of substance P, neurokinin A or neurokinin B” value in experiment [3] is reported as “did not”.

As to `CN1[C@@H]2CC[C@H]1C[C@@H](OC(=O)C(CO)c1ccccc1)C2` (some centres unmarked) [atropine], the “effect on SP plus leu-thiorphan-induced contractions” value in experiment [4] is on record as “decreased SP plus leu-thiorphan-induced contractions significantly”.

For `CSCC[C@H](NC(=O)[C@H](CC(C)C)NC(=O)CNC(=O)[C@H](Cc1ccccc1)NC(=O)[C@H](Cc1ccccc1)NC(=O)[C@H](CCC(N)=O)NC(=O)[C@H](CCC(N)=O)NC(=O)[C@@H]1CCCN1C(=O)[C@H](CCCCN)NC(=O)[C@@H]1CCCN1C(=O)[C@@H](N)CCCNC(=N)N)C(N)=O` [substance P], the “flux of bound SO₄ above the pre-stimulus baseline” value in the experiment with ferret trachea [1] (10 µM) was determined as 155 ± 42%.

With `C[C@H](CS)C(=O)N1CCC[C@H]1C(=O)O` [captopril], the activation at 100 µM in the experiment on ferret trachea [2] (Mustela putorius, inhibitor 10⁻⁴M (Fig. 4), substance P 10⁻⁶M, not significantly different from control, read-out: potentiation of substance P-induced secretion) was 44 ± 27%. In addition, the “potentiation of the response to electrical field stimulation in the presence of substance P, neurokinin A or neurokinin B” value in experiment [3] is given as “did not”.

As to `CC(C)C[C@H](NP(=O)(O)O[C@@H]1O[C@@H](C)[C@H](O)[C@@H](O)[C@H]1O)C(=O)N[C@@H](Cc1c[nH]c2ccccc12)C(=O)O` [phosphoramidon], the “effect on secretory responses to each tachykinin” value in the experiment with ferret trachea [2] (10⁻⁵M, 30 min pretreatment, tachykinins 10⁻⁵M) is reported as “significantly increased”. Besides, the “substance P-induced increase in flux in inhibitor-treated tissues” value in the experiment with ferret trachea [2] (inhibitor 10⁻⁵M, substance P 10⁻⁶M) amounted to 357 ± 91.9 pmol bound SO₄/cm²/h. Besides, in the experiment on neutrophils, the activity at 10 µM came out at 65%.

For kassinin, the “order of potency” value was “substance P> physalaemin=eledoisin=kassinin > neurokinin A” in the experiment on ferret trachea [1] (absence of phosphoramidon) and “Substance P=neurokinin A=physalaemin=eledoisin=kassinin>neurokinin B” with ferret trachea [1] (setting [6]).

On to eledoisin, for which the “order of potency” value in the experiment on ferret trachea [1] (absence of phosphoramidon) is given as “substance P> physalaemin=eledoisin=kassinin > neurokinin A”; with ferret trachea [1] (setting [6]), “Substance P=neurokinin A=physalaemin=eledoisin=kassinin>neurokinin B”.

Turning to teprotide, the “potentiation of substance P-induced secretion” value in the experiment on ferret trachea [1] (inhibitor 10⁻⁴M (Fig. 4), not significantly different from control) worked out at 49 ± 39%.

In the case of bacitracin, the “potentiation of substance P-induced secretion” value in the experiment with ferret trachea [1] (10 µg/ml each, bestatin 10⁻⁵M (Fig. 4)) is on record as “failed to potentiate substance P-induced secretion”.

`CC(=O)N[C@@H](CC(C)C)C(=O)N[C@@H](CC(C)C)C(=O)N[C@H](C=O)CCCNC(=N)N` [leupeptin]: in the experiment on ferret trachea [2] (substance P 10⁻⁶M), the “potentiation of substance P-induced secretion” value is given as “failed to potentiate substance P-induced secretion”. Also, the “potentiation of the response to electrical field stimulation in the presence of substance P, neurokinin A or neurokinin B” value in experiment [3] is reported as “did not”.

On to “bradykinin (RPPGFSPFR; Bradykinin; UniProt P01042 381-389, looked up)”, for which the “contraction” value in experiment [5] (10⁻¹¹ to 10⁻⁵ M) is given as “caused contraction in a dose-dependent fashion”. In addition, the relative contractile potency entry is “more potent that lys-bradykinin” in experiment [5] (absence of enkephalinase inhibitors) and “equally potent” in experiment [5] (presence of Leu-thiorphan).

`O=C(O)CNC(=O)C(CS)Cc1ccccc1` (centres unmarked) [thiorphan]: the “increase in flux of bound SO₄ by the inhibitor by itself” value in the experiment on ferret trachea [2] (10⁻⁴M, submucosal side) was 57 ± 17.8 pmol bound SO₄/cm²/h. The minimal effective concentration with ferret trachea [2] (Mustela putorius, substance P 10⁻⁶M, read-out: threshold of potentiation of the secretory response to substance P) is about 0.01 µM. Besides, in the experiment on ferret trachea [2] (setting [7]), the “response to substance P, % of control” value is recorded as 502 ± 147% and the “substance P-induced increase in flux of bound SO₄ in inhibitor-pretreated tissue” value is 268.0 ± 58.0 pmol/cm²/h. In the experiment with ferret trachea [2] (test of additivity), the “sum of the individual effects as % of the response to substance P in the presence of the inhibitor” value is reported as 51%; the “sum of the individual effects of substance P and inhibitor” value was 136.2 pmol bound SO₄/cm²/h. Besides, in the experiment with neutrophils, the activity at 10 µM was 29 ± 19%.

The record behind these values is patent publication EP0272929B1, “Enkephalinase for therapeutic use” (GENENTECH, INC., priority 1986, dated 1988).
